These results are taken from patent US9012456B2, “Compounds, pharmaceutical compositions and uses thereof” (Boehringer Ingelheim International GmbH, priority 2012, dated 2015).

The structures appear in SMILES notation.

This assay concerns the target T1, human GPR119 (Homo sapiens, UniProt Q8TDV5).
T1 construct: expressed in transfected cells
T1 sequence (Q8TDV5 1-335): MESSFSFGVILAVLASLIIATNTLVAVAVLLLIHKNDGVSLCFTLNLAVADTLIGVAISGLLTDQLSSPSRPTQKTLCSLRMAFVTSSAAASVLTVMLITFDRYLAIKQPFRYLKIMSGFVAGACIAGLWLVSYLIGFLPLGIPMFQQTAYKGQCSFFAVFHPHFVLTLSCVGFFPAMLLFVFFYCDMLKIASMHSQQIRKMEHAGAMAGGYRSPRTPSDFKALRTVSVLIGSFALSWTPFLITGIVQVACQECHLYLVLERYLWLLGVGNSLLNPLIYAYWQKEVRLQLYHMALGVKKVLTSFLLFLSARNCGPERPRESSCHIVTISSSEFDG
The experiment in a line: AlphaScreen cAMP assay in Min-6/hGPR119 cells (activation of GPR119, stimulation of intracellular cAMP). The note with it: MIN6 cells stably transfected with human GPR119; 45 min incubation at room temperature; cAMP by AlphaScreen. Type of assay: cell-based. The procedure:
The compounds of formula I according to the invention modulate the activity of the G-protein-coupled receptor GPR119. The effect of the compounds on the activation of GPR119 and on the stimulation of intracellular cAMP concentration is determined using the AlphaScreen cAMP Assay Kit (Cat. No. #6760625R) made by PerkinElmer.
MIN6 cells [Miyazaki J et al., Endocrinology. 1990 July; 127(1):126-32] are stably transfected with an expression vector for human GPR119 cDNA (Acc. No. NP_848566). Min-6/hGPR119 cells are cultured in DMEM, 10% FBS, 50 μM β-mercaptoethanol, 0.3 mg/mL Geniticin, 2 mM GlutaMAX at 37° C., 5% CO2. For the assay, the cells are seeded in Optiplates (white, 384-well, 160W-barcoded, TC, sterile with lid, Cat. No. #6007688 (Perkin Elmer); 10000 cells/well; 50 μL). The plates covered with lids are then incubated for 24 hours at 37° C., 5% CO2. After the medium is aspirated from the wells completely, 10 μl of the test compound are added, the compounds are diluted using stimulating buffer (140 mM NaCl, 3.6 mM KCl, 0.5 mM NaH2PO4, 0.5 mM MgSO4, 1.5 mM CaCl2, 10 mM Hepes, 5 mM NaHCO3; pH 7.4. 0.5 mM IBMX and 0.1% BSA, the final DMSO concentration is 1%). After 45 minutes incubation at room temperature (approx. 20° C.), the cAMP concentrations are determined using the AlphaScreen cAMP Assay Kit (Cat. No. #6760625R from PerkinElmer).
(Alpha assays give light when donor and acceptor beads are brought close together.)

Turning to `CS(=O)(=O)N1CC=C(c2cc3cc(C4CCN(c5ncc(Cl)cn5)CC4)oc3cn2)CC1` [Example 25, 2-[1-(5-Chloro-pyrimidin-2-yl)-piperidin-4-yl]-5-(1-methanesulfonyl-1,2,3,6-tetrahydro-pyridin-4-yl)-furo[2,3-c]pyridine], a half-maximal response (EC50) required 41 nM.
For `CC(C)(C)OC(=O)N1CCC(c2cc3cc(N4CCN(S(C)(=O)=O)CC4)ncc3o2)CC1` [Example 13, 4-[5-(4-Methanesulfonyl-piperazin-1-yl)-furo[2,3-c]pyridin-2-yl]-piperidine-1-carboxylic acid tert-butyl ester] the value was 82 nM.
